Experimental data published in PubChem BioAssay (NCI).
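Each compound was tested at five concentrations against cells in 96-well plates for 48 hours. TGI: concentration producing complete growth inhibition.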

Experiments:
Assay in all cases: NCI tumour cell line growth inhibition, 48 h
SN12C renal = test system: SN12C renal
OVCAR-8 ovarian = test system: OVCAR-8 ovarian
CCRF-CEM leukemia = test system: CCRF-CEM leukemia
SNB-78 CNS = test system: SNB-78 CNS
MALME-3M melanoma = test system: MALME-3M melanoma
K-562 leukemia = test system: K-562 leukemia
NCI-H23 lung = test system: NCI-H23 lung
HOP-62 NSCLC = test system: HOP-62 NSCLC
HCT-15 colon = test system: HCT-15 colon
SW-620 colon = test system: SW-620 colon
NCI-H522 lung = test system: NCI-H522 lung
DLD-1 colon = test system: DLD-1 colon
COLO 205 colon = test system: COLO 205 colon
HOP-92 NSCLC = test system: HOP-92 NSCLC
SR leukemia = test system: SR leukemia
SNB-75 CNS = test system: SNB-75 CNS
ACHN renal = test system: ACHN renal
HOP-18 NSCLC = test system: HOP-18 NSCLC
UACC-257 melanoma = test system: UACC-257 melanoma
SK-MEL-2 melanoma = test system: SK-MEL-2 melanoma
RXF 393 renal = test system: RXF 393 renal
SF-539 CNS = test system: SF-539 CNS
UO-31 renal = test system: UO-31 renal
DMS 114 small cell lung = test system: DMS 114 small cell lung
U251 CNS = test system: U251 CNS
SF-268 CNS = test system: SF-268 CNS
M19-MEL melanoma = test system: M19-MEL melanoma
DMS 273 small cell lung = test system: DMS 273 small cell lung
RPMI-8226 leukemia = test system: RPMI-8226 leukemia
KM20L2 colon = test system: KM20L2 colon
SNB-19 CNS = test system: SNB-19 CNS
HCT-116 colon = test system: HCT-116 colon
OVCAR-3 ovarian = test system: OVCAR-3 ovarian
UACC-62 melanoma = test system: UACC-62 melanoma
A549 NSCLC = test system: A549 NSCLC
LXFL 529 NSCLC = test system: LXFL 529 NSCLC
SF-295 CNS = test system: SF-295 CNS
HL-60(TB) leukemia = test system: HL-60(TB) leukemia
SK-MEL-5 melanoma = test system: SK-MEL-5 melanoma
SK-OV-3 ovarian = test system: SK-OV-3 ovarian
NCI-H460 lung = test system: NCI-H460 lung
IGROV1 ovarian = test system: IGROV1 ovarian
HCC-2998 colon = test system: HCC-2998 colon
M14 melanoma = test system: M14 melanoma
MOLT-4 leukemia = test system: MOLT-4 leukemia
NCI-H226 lung = test system: NCI-H226 lung
RXF-631 renal = test system: RXF-631 renal
SK-MEL-28 melanoma = test system: SK-MEL-28 melanoma
KM12 colon = test system: KM12 colon
OVCAR-5 ovarian = test system: OVCAR-5 ovarian
OVCAR-4 ovarian = test system: OVCAR-4 ovarian
HT29 colon = test system: HT29 colon
786-0 renal = test system: 786-0 renal
EKVX NSCLC = test system: EKVX NSCLC
A498 renal = test system: A498 renal
CAKI-1 renal = test system: CAKI-1 renal
LOX IMVI melanoma = test system: LOX IMVI melanoma
XF 498 CNS = test system: XF 498 CNS
TK-10 renal = test system: TK-10 renal
MDA-MB-231 breast = test system: MDA-MB-231 breast
PC-3 prostate = test system: PC-3 prostate
DU-145 prostate = test system: DU-145 prostate
MDA-MB-435 = test system: MDA-MB-435
HS 578T breast = test system: HS 578T breast
BT-549 breast = test system: BT-549 breast
MCF7 breast = test system: MCF7 breast
NCI/ADR-RES ovarian = test system: NCI/ADR-RES ovarian
T-47D breast = test system: T-47D breast
MDA-N = test system: MDA-N

Cc1ccccc1N(CCC#N)C1=NN(C(=O)CC(=O)Nc2ccc(Cl)cc2)C(c2ccccc2)C1 (stereo not drawn)
TGI (SN12C renal): > 100 µM | TGI (OVCAR-8 ovarian): > 100 µM | TGI (CCRF-CEM leukemia): > 100 µM | TGI (SNB-78 CNS): > 100 µM | TGI (MALME-3M melanoma): > 100 µM | TGI (K-562 leukemia): > 100 µM | TGI (NCI-H23 lung): > 100 µM | TGI (HOP-62 NSCLC): > 100 µM | TGI (HCT-15 colon): > 100 µM | TGI (SW-620 colon): > 100 µM | TGI (NCI-H522 lung): > 100 µM | TGI (DLD-1 colon): > 100 µM | TGI (COLO 205 colon): > 100 µM | TGI (HOP-92 NSCLC): > 100 µM | TGI (SR leukemia): > 100 µM | TGI (SNB-75 CNS): > 100 µM | TGI (ACHN renal): > 100 µM | TGI (HOP-18 NSCLC): > 100 µM | TGI (UACC-257 melanoma): > 100 µM | TGI (SK-MEL-2 melanoma): > 100 µM | TGI (RXF 393 renal): > 100 µM | TGI (SF-539 CNS): > 100 µM | TGI (UO-31 renal): > 100 µM | TGI (DMS 114 small cell lung): > 100 µM | TGI (U251 CNS): > 100 µM | TGI (SF-268 CNS): > 100 µM | TGI (M19-MEL melanoma): > 100 µM | TGI (DMS 273 small cell lung): > 100 µM | TGI (RPMI-8226 leukemia): > 100 µM | TGI (KM20L2 colon): > 100 µM | TGI (SNB-19 CNS): > 100 µM | TGI (HCT-116 colon): > 100 µM | TGI (OVCAR-3 ovarian): > 100 µM | TGI (UACC-62 melanoma): > 100 µM | TGI (A549 NSCLC): > 100 µM | TGI (LXFL 529 NSCLC): > 100 µM | TGI (SF-295 CNS): > 100 µM | TGI (HL-60(TB) leukemia): > 100 µM | TGI (SK-MEL-5 melanoma): > 100 µM | TGI (SK-OV-3 ovarian): > 100 µM | TGI (NCI-H460 lung): > 100 µM | TGI (IGROV1 ovarian): > 100 µM | TGI (HCC-2998 colon): > 100 µM | TGI (M14 melanoma): > 100 µM | TGI (MOLT-4 leukemia): > 100 µM | TGI (NCI-H226 lung): > 100 µM | TGI (RXF-631 renal): > 100 µM | TGI (SK-MEL-28 melanoma): > 100 µM | TGI (KM12 colon): > 100 µM | TGI (OVCAR-5 ovarian): > 100 µM | TGI (OVCAR-4 ovarian): > 100 µM | TGI (HT29 colon): > 100 µM | TGI (786-0 renal): > 100 µM | TGI (EKVX NSCLC): > 100 µM

CCOC(=O)C(C(=O)OCC)c1cc(-c2cc3ccccc3o2)oc(=O)c1C#N
TGI (SN12C renal): 62.9 µM | TGI (A498 renal): 70.1 µM | TGI (OVCAR-8 ovarian): 49.1 µM | TGI (CAKI-1 renal): 38.1 µM | TGI (CCRF-CEM leukemia): > 100 µM | TGI (SNB-78 CNS): 73.4 µM | TGI (MALME-3M melanoma): 55.7 µM | TGI (K-562 leukemia): > 100 µM | TGI (LOX IMVI melanoma): 31.8 µM | TGI (NCI-H23 lung): 36.7 µM | TGI (HCT-15 colon): 35.7 µM | TGI (SW-620 colon): 52.6 µM | TGI (COLO 205 colon): 48.7 µM | TGI (HOP-92 NSCLC): 20.6 µM | TGI (SR leukemia): 66.3 µM | TGI (SNB-75 CNS): 90.6 µM | TGI (ACHN renal): > 100 µM | TGI (HOP-18 NSCLC): 65.4 µM | TGI (UACC-257 melanoma): 76.4 µM | TGI (SK-MEL-2 melanoma): 38.2 µM | TGI (RXF 393 renal): 43.5 µM | TGI (SF-539 CNS): 36.8 µM | TGI (UO-31 renal): 90.3 µM | TGI (DMS 114 small cell lung): 67.1 µM | TGI (U251 CNS): 30.6 µM | TGI (SF-268 CNS): > 100 µM | TGI (DMS 273 small cell lung): 60.1 µM | TGI (RPMI-8226 leukemia): > 100 µM | TGI (KM20L2 colon): 37.5 µM | TGI (SNB-19 CNS): > 100 µM | TGI (HCT-116 colon): 44.9 µM | TGI (A549 NSCLC): > 100 µM | TGI (LXFL 529 NSCLC): 41.8 µM | TGI (SF-295 CNS): 48.2 µM | TGI (HL-60(TB) leukemia): 64.8 µM | TGI (SK-MEL-5 melanoma): > 100 µM | TGI (NCI-H460 lung): > 100 µM | TGI (IGROV1 ovarian): 80 µM | TGI (HCC-2998 colon): 46.9 µM | TGI (M14 melanoma): 36.9 µM | TGI (MOLT-4 leukemia): 87.2 µM | TGI (XF 498 CNS): 36.3 µM | TGI (NCI-H226 lung): 41.9 µM | TGI (SK-MEL-28 melanoma): 63.3 µM | TGI (TK-10 renal): 52.1 µM | TGI (KM12 colon): > 100 µM | TGI (OVCAR-5 ovarian): 33.1 µM | TGI (OVCAR-4 ovarian): 71.4 µM | TGI (HT29 colon): 35 µM | TGI (EKVX NSCLC): > 100 µM

CSC12c3cc(C)n(-c4ccc(I)cc4)c3CC(C)(C)CN1C(=O)C2Oc1ccccc1 (stereo not drawn)
TGI (SN12C renal): > 100 µM | TGI (A498 renal): > 100 µM | TGI (MDA-MB-231 breast): > 100 µM | TGI (OVCAR-8 ovarian): > 100 µM | TGI (CAKI-1 renal): > 100 µM | TGI (CCRF-CEM leukemia): > 100 µM | TGI (MALME-3M melanoma): > 100 µM | TGI (K-562 leukemia): > 100 µM | TGI (LOX IMVI melanoma): > 100 µM | TGI (NCI-H23 lung): > 100 µM | TGI (HOP-62 NSCLC): > 100 µM | TGI (PC-3 prostate): > 100 µM | TGI (HCT-15 colon): > 100 µM | TGI (SW-620 colon): > 100 µM | TGI (NCI-H522 lung): > 100 µM | TGI (COLO 205 colon): > 100 µM | TGI (HOP-92 NSCLC): > 100 µM | TGI (SR leukemia): > 100 µM | TGI (SNB-75 CNS): > 100 µM | TGI (ACHN renal): > 100 µM | TGI (DU-145 prostate): > 100 µM | TGI (UACC-257 melanoma): > 100 µM | TGI (SK-MEL-2 melanoma): > 100 µM | TGI (RXF 393 renal): > 100 µM | TGI (SF-539 CNS): > 100 µM | TGI (UO-31 renal): > 100 µM | TGI (MDA-MB-435): > 100 µM | TGI (U251 CNS): > 100 µM | TGI (SF-268 CNS): > 100 µM | TGI (RPMI-8226 leukemia): > 100 µM | TGI (SNB-19 CNS): > 100 µM | TGI (HS 578T breast): > 100 µM | TGI (HCT-116 colon): > 100 µM | TGI (OVCAR-3 ovarian): > 100 µM | TGI (UACC-62 melanoma): > 100 µM | TGI (A549 NSCLC): > 100 µM | TGI (BT-549 breast): > 100 µM | TGI (SF-295 CNS): > 100 µM | TGI (HL-60(TB) leukemia): > 100 µM | TGI (SK-MEL-5 melanoma): > 100 µM | TGI (SK-OV-3 ovarian): > 100 µM | TGI (NCI-H460 lung): > 100 µM | TGI (IGROV1 ovarian): > 100 µM | TGI (HCC-2998 colon): > 100 µM | TGI (M14 melanoma): > 100 µM | TGI (MOLT-4 leukemia): > 100 µM | TGI (MCF7 breast): > 100 µM | TGI (NCI/ADR-RES ovarian): > 100 µM | TGI (NCI-H226 lung): > 100 µM | TGI (SK-MEL-28 melanoma): > 100 µM | TGI (TK-10 renal): > 100 µM | TGI (T-47D breast): > 100 µM | TGI (KM12 colon): > 100 µM | TGI (OVCAR-5 ovarian): > 100 µM | TGI (OVCAR-4 ovarian): > 100 µM | TGI (MDA-N): > 100 µM | TGI (HT29 colon): > 100 µM | TGI (786-0 renal): > 100 µM | TGI (EKVX NSCLC): > 100 µM
